Results on 15 compounds are retold here after patent publication US11254668B2, “Pyrazolo[1,5-A]pyrazin-4-yl and related derivatives” (Pfizer Inc., priority 2017, dated 2022).

What all share (format): biochemical
The target of one assay is JAK3 (Homo sapiens (Human), UniProt P52333). The assay is described as follows: JAK Caliper Enzyme Assay at 1 mM ATP, JAK3. The procedure, abridged:
(§1)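 Recombinant human kinase domains phosphorylate a fluorescent synthetic peptide at 1 mM ATP, room temperature, with enzyme and time tuned for 20-30% conversion; EDTA-stopped. Product/substrate separated by microfluidic mobility shift; percent effect versus DMSO and positive controls fitted to IC50 (nM).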

A further assay addresses JAK1 (Homo sapiens (Human), UniProt P23458). The assay can be described thus: JAK Caliper Enzyme Assay at 1 mM ATP, JAK1. The procedure, abridged:
as §1

Another assay concerns the target TYK2 (Homo sapiens (Human), UniProt P29597). The assay can be described thus: JAK Caliper Enzyme Assay at 1 mM ATP, TYK2. The procedure, abridged:
(§2)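 Peptide phosphorylation by recombinant human kinase domain, 1 mM ATP, room temperature, EDTA-terminated, detected by microfluidic mobility shift; % effect normalised to DMSO baseline.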

Another assay concerns the target JAK2 (Homo sapiens (Human), UniProt O60674). The assay is described as follows: JAK Caliper Enzyme Assay at 1 mM ATP, JAK2. The procedure, abridged: as §2

pIC50: −log10 of the molar value. A value given as a limit tells only on which side of the number the result lay.

Chain of JAK3 (P52333 822-1111): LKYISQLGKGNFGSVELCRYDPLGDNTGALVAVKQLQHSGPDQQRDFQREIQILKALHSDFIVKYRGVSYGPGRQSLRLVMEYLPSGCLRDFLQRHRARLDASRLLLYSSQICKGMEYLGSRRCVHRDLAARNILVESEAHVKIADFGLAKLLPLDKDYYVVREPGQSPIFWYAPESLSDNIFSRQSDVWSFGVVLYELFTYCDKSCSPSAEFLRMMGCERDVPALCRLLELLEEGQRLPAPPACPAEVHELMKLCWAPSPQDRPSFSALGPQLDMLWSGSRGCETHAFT
Chain of TYK2 (P29597 897-1176): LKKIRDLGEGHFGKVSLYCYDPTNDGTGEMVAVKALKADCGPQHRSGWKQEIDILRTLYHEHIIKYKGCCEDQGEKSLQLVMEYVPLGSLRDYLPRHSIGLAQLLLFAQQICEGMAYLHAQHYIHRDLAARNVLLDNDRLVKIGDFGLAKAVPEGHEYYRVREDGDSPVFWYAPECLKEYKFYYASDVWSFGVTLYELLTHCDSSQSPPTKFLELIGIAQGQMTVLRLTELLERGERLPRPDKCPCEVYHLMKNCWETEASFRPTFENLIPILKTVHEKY
Chain of JAK2 (O60674 849-1124): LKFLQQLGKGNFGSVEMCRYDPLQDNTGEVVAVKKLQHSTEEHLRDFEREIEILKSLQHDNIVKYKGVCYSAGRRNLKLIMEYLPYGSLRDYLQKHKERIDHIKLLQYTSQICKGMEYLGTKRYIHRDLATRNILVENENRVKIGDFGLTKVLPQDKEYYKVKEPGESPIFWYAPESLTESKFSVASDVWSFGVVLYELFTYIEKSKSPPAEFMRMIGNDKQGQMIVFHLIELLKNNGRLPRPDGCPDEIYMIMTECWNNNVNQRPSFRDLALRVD
Chain of JAK1 (P23458 875-1153): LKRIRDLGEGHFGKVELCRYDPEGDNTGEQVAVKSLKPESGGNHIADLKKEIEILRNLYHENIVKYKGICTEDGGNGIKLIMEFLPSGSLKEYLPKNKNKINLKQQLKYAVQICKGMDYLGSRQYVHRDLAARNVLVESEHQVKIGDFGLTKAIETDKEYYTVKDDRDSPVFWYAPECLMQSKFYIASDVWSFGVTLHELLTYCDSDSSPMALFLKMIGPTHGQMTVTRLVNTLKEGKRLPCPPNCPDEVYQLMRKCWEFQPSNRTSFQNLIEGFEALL

Usually pIC50 stands for the IC50 on a negative log10 scale, so that one unit is a factor of ten. As for `N#CCC1(n2ccc(-c3nc(-c4cnn(C5CNC5)c4)cc4ncccc34)n2)CN(CC(F)(F)F)C1` [Example 115, [3-(3-{7-[1-(azetidin-3-yl)-1H-pyrazol-4-yl]-1,6-naphthyridin-5-yl}-1H-pyrazol-1-yl)-1-(2,2,2-trifluoroethyl)azetidin-3-yl]acetonitrile], the negative-log IC50 (pIC50) was below 5.00 at JAK3, 5.15 on JAK1, 6.92 on TYK2 and 6.49 at JAK2.

Turning to `N#CCC1(n2ccc(-c3nc(-c4cnn(C5CCNCC5)c4)cc4ncccc34)n2)CN(CC(F)(F)F)C1` [Example 116, [3-(3-{7-[1-(piperidin-4-yl)-1H-pyrazol-4-yl]-1,6-naphthyridin-5-yl}-1H-pyrazol-1-yl)-1-(2,2,2-trifluoroethyl)azetidin-3-yl]acetonitrile], the pIC50 was 5.35 at JAK3, 5.98 at JAK1, 7.39 on TYK2 and 7.27 at JAK2.

As for `CN1CCC(n2cc(-c3cc4ncccc4c(-c4ccn(C5(CC#N)CN(CC(F)(F)F)C5)n4)n3)cn2)CC1` [Example 117, [3-(3-{7-[1-(1-methylpiperidin-4-yl)-1H-pyrazol-4-yl]-1,6-naphthyridin-5-yl}-1H-pyrazol-1-yl)-1-(2,2,2-trifluoroethyl)azetidin-3-yl]acetonitrile], the pIC50 at JAK3 is 5.16; at JAK1, 5.97; on TYK2, 7.06; on JAK2, 7.19.

Regarding `CS(=O)(=O)N1CC(CC#N)(n2ccc(-c3nc(-c4cnn(C(F)(F)F)c4)cc4ncccc34)n2)C1` [Example 118, [1-(methylsulfonyl)-3-(3-{7-[1-(trifluoromethyl)-1H-pyrazol-4-yl]-1,6-naphthyridin-5-yl}-1H-pyrazol-1-yl)azetidin-3-yl]acetonitrile], the pIC50 at JAK3 was below 5.00; at JAK1 it was 5.04; on TYK2, 6.07; at JAK2, 5.38.

As for `N#CCC1(n2ccc(-c3nc(-c4cnn(C5COC5)c4)cc4ncccc34)n2)CN(CC(F)(F)F)C1` [Example 119, [3-(3-{7-[1-(oxetan-3-yl)-1H-pyrazol-4-yl]-1,6-naphthyridin-5-yl}-1H-pyrazol-1-yl)-1-(2,2,2-trifluoroethyl)azetidin-3-yl]acetonitrile], the negative-log IC50 (pIC50) at JAK3 is 5.08; on JAK1 it was 6.01; at TYK2 it was 7.54; on JAK2, 7.09.

Take `CS(=O)(=O)N1CC(CC#N)(n2ccc(-c3nc(-c4cnn(C5COC5)c4)cc4ncccc34)n2)C1` [Example 121, [1-(methylsulfonyl)-3-(3-{7-[1-(oxetan-3-yl)-1H-pyrazol-4-yl]-1,6-naphthyridin-5-yl}-1H-pyrazol-1-yl)azetidin-3-yl]acetonitrile]: the pIC50 at JAK3 is 5.02; on JAK1, 5.76; on TYK2 it was 7.70; at JAK2, 7.00.

Regarding `CO[C@H]1C[C@@](CC#N)(n2ccc(-c3nc(-c4cnn(C5COC5)c4)cc4ncccc34)n2)C1` [Example 122, [cis-3-methoxy-1-(3-{7-[1-(oxetan-3-yl)-1H-pyrazol-4-yl]-1,6-naphthyridin-5-yl}-1H-pyrazol-1-yl)cyclobutyl]acetonitrile], the negative logarithm of the IC50 (pIC50) at JAK3 is below 5.00; on JAK1 it was 5.18; on TYK2, 6.96; at JAK2, 6.41.

With `CS(=O)(=O)N1CC(CC#N)(n2ccc(-c3nc(-c4cnn([C@H]5CCOC5)c4)cc4ncccc34)n2)C1` [Example 123, {1-(methylsulfonyl)-3-[3-(7-{1-[(3S)-tetrahydrofuran-3-yl]-1H-pyrazol-4-yl}-1,6-naphthyridin-5-yl)-1H-pyrazol-1-yl]azetidin-3-yl}acetonitrile], the pIC50 at JAK3 was 5.01; at JAK1, 6.13; at TYK2 it was 7.68; on JAK2, 7.27.

As to `CS(=O)(=O)N1CC(CC#N)(n2ccc(-c3nc(-c4cnn([C@@H]5CCOC5)c4)cc4ncccc34)n2)C1` [Example 124, {1-(methylsulfonyl)-3-[3-(7-{1-[(3R)-tetrahydrofuran-3-yl]-1H-pyrazol-4-yl}-1,6-naphthyridin-5-yl)-1H-pyrazol-1-yl]azetidin-3-yl}acetonitrile], the pIC50 is 5.01 on JAK3, 6.15 at JAK1, 7.57 on TYK2 and 7.17 at JAK2.

In the case of `CS(=O)(=O)N1CC(CC#N)(n2ccc(-c3nc(-c4cnn(CCO)c4)cc4ncccc34)n2)C1` [Example 125, [3-(3-{7-[1-(2-hydroxyethyl)-1H-pyrazol-4-yl]-1,6-naphthyridin-5-yl}-1H-pyrazol-1-yl)-1-(methylsulfonyl)azetidin-3-yl]acetonitrile], the negative-log IC50 (pIC50) was below 5.00 at JAK3, 6.02 on JAK1, 7.48 at TYK2 and 6.79 on JAK2.

As for `N#CC[C@]1(n2ccc(-c3nc(-c4cnn(CCO)c4)cc4ncccc34)n2)C[C@H](C#N)C1` [Example 126, trans-3-(cyanomethyl)-3-(3-{7-[1-(2-hydroxyethyl)-1H-pyrazol-4-yl]-1,6-naphthyridin-5-yl}-1H-pyrazol-1-yl)cyclobutanecarbonitrile], the pIC50 on JAK3 was below 5.00; at JAK1 it was 6.23; at TYK2, 7.39; on JAK2 it was 6.92.

On to `N#CC[C@]1(n2ccc(-c3nc(-c4cnn(CCO)c4)cc4ncccc34)n2)C[C@@H](C#N)C1` [Example 127, cis-3-(cyanomethyl)-3-(3-{7-[1-(2-hydroxyethyl)-1H-pyrazol-4-yl]-1,6-naphthyridin-5-yl}-1H-pyrazol-1-yl)cyclobutanecarbonitrile], for which the negative logarithm of the IC50 (pIC50) on JAK3 is 5.98; on JAK1, 7.19; at TYK2, 7.77; on JAK2, 7.70.

As to `CO[C@H]1C[C@@](CC#N)(n2ccc(-c3nc(-c4cnn(CCO)c4)cc4ncccc34)n2)C1` [Example 128, [cis-1-(3-{7-[1-(2-hydroxyethyl)-1H-pyrazol-4-yl]-1,6-naphthyridin-5-yl}-1H-pyrazol-1-yl)-3-methoxycyclobutyl]acetonitrile], the pIC50 on JAK3 was below 5.00; on JAK1, 5.45; at TYK2 it was 6.94; on JAK2, 6.21.

As to `CO[C@H]1C[C@](CC#N)(n2ccc(-c3nc(-c4cnn(CCO)c4)cc4ncccc34)n2)C1` [Example 129, [trans-1-(3-{7-[1-(2-hydroxyethyl)-1H-pyrazol-4-yl]-1,6-naphthyridin-5-yl}-1H-pyrazol-1-yl)-3-methoxycyclobutyl]acetonitrile], the pIC50 is below 5.00 on JAK3, 5.23 at JAK1, 6.88 at TYK2 and 5.91 on JAK2.

As to `CS(=O)(=O)N1CC(CC#N)(n2ccc(-c3nc(-c4cnn(C(CO)CCl)c4)cc4ncccc34)n2)C1` (stereo not drawn) [Example 130, [3-(3-{7-[1-(1-chloro-3-hydroxypropan-2-yl)-1H-pyrazol-4-yl]-1,6-naphthyridin-5-yl}-1H-pyrazol-1-yl)-1-(methylsulfonyl)azetidin-3-yl]acetonitrile], the pIC50 on JAK3 is 5.02; at JAK1, 6.63; at TYK2, 7.49; at JAK2, 7.20.
